The source of these data is patent US11214563B2 (JANSSEN PHARMACEUTICA NV, priority 2019, dated 2022).

In series [1] the target is human GluN1/GluN2B NMDA receptors (Homo sapiens (Human), UniProt Q05586+Q13224). Put plainly: Cell-based calcium flux (FLIPR) assay on cloned human NR1/NR2B ion channels expressed in mammalian cells. The conditions noted are these: standard assay, glutamate ~EC40, 10 μM glycine. The procedure: (§1) Effects of Test Articles on Cloned Human NR1/NR2B Ion Channels Expressed in Mammalian Cells
Chain of human GluN1/GluN2B NMDA receptors (Homo sapiens (Human), UniProt Q05586+Q13224) (Q13224 27-1484, other chains not shown): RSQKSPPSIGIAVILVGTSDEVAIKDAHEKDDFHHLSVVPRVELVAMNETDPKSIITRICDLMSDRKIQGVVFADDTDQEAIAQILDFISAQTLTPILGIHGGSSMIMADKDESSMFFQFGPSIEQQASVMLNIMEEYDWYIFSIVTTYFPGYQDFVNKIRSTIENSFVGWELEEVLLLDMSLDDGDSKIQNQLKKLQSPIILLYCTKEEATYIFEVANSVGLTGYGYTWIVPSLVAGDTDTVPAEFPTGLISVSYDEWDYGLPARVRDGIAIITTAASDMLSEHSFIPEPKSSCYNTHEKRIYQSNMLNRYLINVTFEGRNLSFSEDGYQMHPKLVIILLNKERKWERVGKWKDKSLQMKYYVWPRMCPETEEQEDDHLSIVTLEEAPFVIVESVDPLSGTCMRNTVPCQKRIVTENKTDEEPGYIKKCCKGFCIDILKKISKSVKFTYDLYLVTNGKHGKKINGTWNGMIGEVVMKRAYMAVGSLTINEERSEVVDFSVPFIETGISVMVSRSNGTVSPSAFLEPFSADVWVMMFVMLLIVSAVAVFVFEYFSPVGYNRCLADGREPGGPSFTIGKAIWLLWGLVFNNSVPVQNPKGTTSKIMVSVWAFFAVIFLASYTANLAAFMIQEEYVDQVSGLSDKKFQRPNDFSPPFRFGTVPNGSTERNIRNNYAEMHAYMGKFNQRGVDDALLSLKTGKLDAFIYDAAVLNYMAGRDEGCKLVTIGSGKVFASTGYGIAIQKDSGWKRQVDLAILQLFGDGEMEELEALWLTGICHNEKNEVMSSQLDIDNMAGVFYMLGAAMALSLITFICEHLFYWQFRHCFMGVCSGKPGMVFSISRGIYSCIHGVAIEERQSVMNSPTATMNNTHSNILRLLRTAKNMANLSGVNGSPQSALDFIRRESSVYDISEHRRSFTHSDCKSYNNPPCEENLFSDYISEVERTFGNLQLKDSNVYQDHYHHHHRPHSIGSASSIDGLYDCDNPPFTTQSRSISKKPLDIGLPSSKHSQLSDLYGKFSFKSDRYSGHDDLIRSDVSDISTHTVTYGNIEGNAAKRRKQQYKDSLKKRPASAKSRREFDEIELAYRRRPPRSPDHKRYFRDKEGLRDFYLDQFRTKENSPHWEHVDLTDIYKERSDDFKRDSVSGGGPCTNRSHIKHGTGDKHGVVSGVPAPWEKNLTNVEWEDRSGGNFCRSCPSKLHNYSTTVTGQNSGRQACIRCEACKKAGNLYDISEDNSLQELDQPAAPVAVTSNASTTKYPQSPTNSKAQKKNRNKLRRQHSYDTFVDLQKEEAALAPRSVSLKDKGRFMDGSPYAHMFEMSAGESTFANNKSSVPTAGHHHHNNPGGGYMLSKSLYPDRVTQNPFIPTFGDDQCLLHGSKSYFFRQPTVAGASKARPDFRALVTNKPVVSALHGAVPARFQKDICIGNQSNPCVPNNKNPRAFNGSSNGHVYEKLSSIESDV
(§2) NMDA receptors are ion channels that are highly permeable to Ca^2+ ions, rendering it possible to monitor NMDA receptor function using cell-based calcium flux assay. In this assay, co-agonists glutamate and glycine are added to cells heterologously expressing human GluN1/GluN2B NMDA receptors to initiate cellular Ca^2+ influx. The time course of the changes in intracellular calcium is measured using a fluorescent dye and a FLIPR (Fluorometric Imaging Plate Reader) device.
(§3) Twenty four hours before measurements, the expression of the NMDA receptors in the stable cell line is induced with Tet-On inducible system in the presence of a non-selective NMDA receptor blocker. On the day of the experiment, cell culture media is carefully washed and the cells are loaded with Calcium 5 Dye Kit (Molecular Devices) in dye loading buffer containing 137 mM NaCl, 4 mM KCl, 2 mM CaCl2), 0.5 mM MgCl2(standard assay) or 1.5 mM MgCl2 (HTS assay), 10 mM HEPES and 5 mM D-glucose; pH 7.4. After 1 h incubation at the room temperature, the dye is washed away with the assay buffer (137 mM NaCl (standard assay) or 150 mM (HTS assay), 4 mM KCl (standard assay) or 3 mM (HTS assay), 2 mM CaCl2), 0.01 mM EDTA, 10 mM HEPES and 5 mM D-glucose; pH 7.4) In the FLIPR TETRA reader, various concentrations of the test compounds are added to the cells for 5 min while fluorescence is monitored to detect potential agonist activity. Next, co-agonists, glutamate and glycine are added for another 5 minutes. The concentration of glutamate corresponding to ˜EC40 (standard assay) or EC40 (HTS assay) is used to maximize the assay's signal window and ability to detect NMDA receptor antagonists and negative allosteric modulators. A saturating concentration (10 μM) of glycine is also present in the assay. A non-selective NMDA receptor antagonist, (+)MK-801 is used as a positive control for antagonist activity. The fluorescent signal in the presence of test compounds is quantified and normalized to the signal defined by the appropriate control wells.
(Calcium assays in cells follow changes in intracellular calcium, usually with a dye or a luminescent sensor.)

Series [2] is described as follows: Liver microsomal stability (extraction ratio). The series is classed as in vitro ADME. The conditions noted are these: test compound 1 μM; 0.5 mg/mL liver microsomes; species not stated in Table 4 (method: mouse, rat, and human). The procedure:
Protocol for Liver Microsomal Stability (Extraction Ratio)
Liver Microsomal Stability. Microsomal stability studies (Chrovian et al, “H-Pyrrolo[3,2-b]pyridine GluN2B-Selective Negative Allosteric Modulators”. ACS Med Chem Lett. 2019 Jan. 10; 10(3):261-266) were conducted on a Biomek@ FX Robotic Liquid Handling Workstation (Beckman Coulter, Brea, Calif.), which consists of a 96-channel pipette head, a 12-position workstation deck, and a plate incubator. Test compounds (1 μM) were spiked in a reaction mix consisting of 100 mM potassium phosphate buffer (pH 7.4), 3 mM MgCl2, and 0.5 mg/mL liver microsomes from mouse, rat, and human (BD Gentest). The reaction was brought to 37° C. and initiated by adding NADPH to a final concentration of 1 mM. After mixing on the plate deck, […] aliquots were excised from the reaction plate at 0, 5, 10, 20, 40, and 60 min and quenched with four volumes of acetonitrile spiked with […] of the internal standard phenytoin. Quenched plates were centrifuged at 5700 rpm for 10 min at 4° C., and supernatant was diluted 1:3 in water before LC/MS/MS analysis. The compound half-lives were derived from plots of the ln of percent remaining compound over time to determine the intrinsic clearance. The predicted hepatic clearance was derived from the intrinsic clearance value using equations from the well-stirred model (Current Drug Metabolism, 2008, 9, 940-951), where no correction was made plasma protein binding and the blood to plasma concentration ratio was assumed to be one. The extraction ratio (ER) was calculated by dividing the predicted hepatic clearance by species blood flow (Q), where Q is 90, 55, and 21.7 mL/min/kg for mouse, rat and human, respectively
For orientation: Microsomes from liver hold many membrane-bound enzymes, among them those of drug oxidation.

Series [3] has as its target human GluN1/GluN2B NMDA receptors (Homo sapiens (Human), UniProt Q13224). Put plainly: Cell-based calcium flux (FLIPR) assay on cloned human NR1/NR2B ion channels expressed in mammalian cells. Particulars: standard assay, glutamate ~EC40, 10 μM glycine. The procedure:
as §1, §2, §3

Usually IC50 stands for the point on the concentration scale where inhibition reaches its midpoint.

Chain of human GluN1/GluN2B NMDA receptors (Homo sapiens (Human), UniProt Q13224) (Q13224 27-1484, other chains not shown): as above

As to `CN(C)C(=O)Cn1ncc2ncc(-c3ccc(Cl)c(F)c3)nc21` [Example 5, 2-[6-(4-Chloro-3-fluoro-phenyl)pyrazolo[3,4-b]pyrazin-1-yl]-N,N-dimethyl-acetamide], the IC50 in series [1] stood at 827 nM.

Regarding `Cc1ccc(-c2cnc3cnn(CC(=O)N(C)C)c3n2)cc1F` [Example 6, 2-[6-(3-Fluoro-4-methyl-phenyl)pyrazolo[3,4-b]pyrazin-1-yl]-N,N-dimethyl-acetamide], the IC50 in series [1] worked out at 916 nM. For the compound `CN(C)C(=O)Cn1ncc2ncc(-c3ccc(F)c(C(F)F)c3)nc21` [Example 10, 2-[6-[3-(Difluoromethyl)-4-fluoro-phenyl]pyrazolo[3,4-b]pyrazin-1-yl]-N,N-dimethyl-acetamide], the “Extraction Ratio @ 1 μM” value in series [2] is reported as 0.41. Moreover, in series [1], the IC50 worked out at 42 nM. `CN(C)C(=O)Cn1nc(F)c2ncc(-c3ccc(F)c(C(F)F)c3)nc21` [Example 11, 2-[6-[3-(Difluoromethyl)-4-fluoro-phenyl]-3-fluoro-pyrazolo[3,4-b]pyrazin-1-yl]-N,N-dimethyl-acetamide]: the IC50 in series [1] stood at 59 nM.

Consider `CN(C)C(=O)Cn1ncc2ncc(-c3ccc(Cl)c(C(F)F)c3)nc21` [Example 12, 2-[6-[4-Chloro-3-(difluoromethyl)phenyl]pyrazolo[3,4-b]pyrazin-1-yl]-N,N-dimethyl-acetamide], for which the “Extraction Ratio @ 1 μM” value in series [2] came to 0.54. Besides, the IC50 in series [1] was determined as 36 nM. Regarding `CN(C)C(=O)Cn1ncc2ncc(-c3ccc(F)c(OC(F)F)c3)nc21` [Example 16, 2-[6-[3-(Difluoromethoxy)-4-fluoro-phenyl]pyrazolo[3,4-b]pyrazin-1-yl]-N,N-dimethyl-acetamide], in series [1], the 50% inhibitory concentration (IC50) turned out to be 72 nM. The same measure, in the same setting: the result for `CN(C)C(=O)Cn1ncc2ncc(-c3ccc(Cl)c(OC(F)F)c3)nc21` [Example 18, 2-[6-[4-Chloro-3-(difluoromethoxy)phenyl]pyrazolo[3,4-b]pyrazin-1-yl]-N,N-dimethyl-acetamide] reads 64 nM; that for `Cc1c(F)cc(-c2cnc3cnn(CC(=O)N(C)C)c3n2)cc1F` [Example 20, 2-[6-(3,5-Difluoro-4-methyl-phenyl)pyrazolo[3,4-b]pyrazin-1-yl]-N,N-dimethyl-acetamide], 907 nM.

On to `CN(C)C(=O)Cn1ncc2ncc(-c3cc(F)c(F)c(F)c3)nc21` [Example 22, N,N-Dimethyl-2-[6-(3,4,5-trifluorophenyl)pyrazolo[3,4-b]pyrazin-1-yl]acetamide], for which, in series [1], the half-inhibitory concentration (IC50) was determined as 489 nM. In the case of `O=C(Cn1ncc2ncc(-c3ccc(F)c(C(F)F)c3)nc21)N1CCC1` [Example 24, 1-(Azetidin-1-yl)-2-[6-[3-(difluoromethyl)-4-fluoro-phenyl]pyrazolo[3,4-b]pyrazin-1-yl]ethanone], in series [2], the “Extraction Ratio @ 1 μM” value is below 0.298. Further, the IC50 in series [1] turned out to be 37 nM. Take `CC(F)(F)c1cc(-c2cnc3cnn(CC(=O)N4CCC4)c3n2)ccc1F` [Example 27, 1-(Azetidin-1-yl)-2-[6-[3-(1,1-difluoroethyl)-4-fluoro-phenyl]pyrazolo[3,4-b]pyrazin-1-yl]ethanone]: in series [1], the IC50 came out at 126 nM. Regarding `O=C(Cn1ncc2ncc(-c3ccc(F)c(OC(F)F)c3)nc21)N1CCC1` [Example 28, 1-(Azetidin-1-yl)-2-[6-[3-(difluoromethoxy)-4-fluoro-phenyl]pyrazolo[3,4-b]pyrazin-1-yl]ethanone], the “Extraction Ratio @ 1 μM” value in series [2] was determined as 0.45. Also, the IC50 in series [3] was determined as 59 nM. In the case of `CC1CN(C(=O)Cn2ncc3ncc(-c4ccc(F)c(C(F)F)c4)nc32)C1` [Example 30, 2-[6-[3-(Difluoromethyl)-4-fluoro-phenyl]pyrazolo[3,4-b]pyrazin-1-yl]-1-(3-methylazetidin-1-yl)ethanone], the concentration for half-maximal inhibition (IC50) in series [1] worked out at 122 nM. For the compound `O=C(Cn1ncc2ncc(-c3ccc(F)c(C(F)F)c3)nc21)N1CC(F)C1` [Example 32, 2-[6-[3-(Difluoromethyl)-4-fluoro-phenyl]pyrazolo[3,4-b]pyrazin-1-yl]-1-(3-fluoroazetidin-1-yl)ethanone], the “Extraction Ratio @ 1 μM” value in series [2] is listed as below 0.298. The 50% inhibitory concentration (IC50) in series [1] came to 37 nM. Regarding `O=C(Cn1ncc2ncc(-c3ccc(F)c(OC(F)F)c3)nc21)N1CC(F)C1` [Example 37, 2-[6-[3-(Difluoromethoxy)-4-fluoro-phenyl]pyrazolo[3,4-b]pyrazin-1-yl]-1-(3-fluoroazetidin-1-yl)ethanone], the “Extraction Ratio @ 1 μM” value in series [2] came to 0.46. For the same compound, in series [3], the IC50 amounted to 92 nM. As to `Cc1nnc(Cn2ncc3ncc(-c4ccc(F)c(C(F)F)c4)nc32)o1` [Example 40, 2-[[6-[3-(Difluoromethyl)-4-fluoro-phenyl]pyrazolo[3,4-b]pyrazin-1-yl]methyl]-5-methyl-1,3,4-oxadiazole], the IC50 in series [1] worked out at 158 nM. Same read-out and setting: as for `N#Cc1cncc(Cn2ncc3ncc(-c4ccc(F)c(C(F)F)c4)nc32)c1` [Example 45, 5-[[6-[3-(Difluoromethyl)-4-fluoro-phenyl]pyrazolo[3,4-b]pyrazin-1-yl]methyl]pyridine-3-carbonitrile], the figure is 285 nM; as for `O=C1NCC(Cn2ncc3ncc(-c4ccc(F)c(OC(F)F)c4)nc32)O1` (stereo not shown) [Example 51, 5-((6-(3-(Difluoromethoxy)-4-fluorophenyl)-1H-pyrazolo[3,4-b]pyrazin-1-yl)methyl)oxazolidin-2-one], above 3000 nM. The same measure, in the same setting: the result for `CN(C)C(=O)Cn1ncc2ncc(-c3ccc(C(C)(F)F)cc3)nc21` [Example 53, 2-(6-(4-(1,1-Difluoroethyl)phenyl)-1H-pyrazolo[3,4-b]pyrazin-1-yl)-N,N-dimethylacetamide] reads above 3000 nM.
